Molecules are shown by their SMILES. In brackets after ≈: the same amount, converted by molar mass. Where two headings read alike, the source gives them in different places. Starred links: 1 amine or outer side, 2 acyl side, 3 side chain; linkers in the order of their positions; H or OH if unused. Non-standard residues stand in square brackets, D forms with d. Residues, ends and D or L forms follow the SMILES beside them. *: point of attachment. X3 = CC(=O)Oc1ccc(C[C@@H](C)[C@H](N[*:1])C(=O)[*:2])cc1; X4 = CC(C)[C@@H](N[*:1])[C@@H](C)C(=O)[*:2]; X1 = CC(Cc1ccccc1)C(N[*:1])C(=O)[*:2]; X2 = CC(C)C(N[*:1])C(C)C(=O)[*:2]; X5 = C[C@H](OCc1ccccc1)C(=O)*; dNMeV = CN[C@@H](C(=O)O)C(C)C; dHiv = CC(C)[C@@H](O)C(=O)O; Hiv = CC(C)[C@H](O)C(=O)O; Lac = C[C@H](O)C(=O)O; OBn = c1ccc(CO*)cc1

The test system of series [1] is cypris larvae of the barnacle Amphibalanus amphitrite. Description: Antifouling assay: inhibition of settlement of cypris larvae, 48 h exposure. The class given is in vivo. The following applies: for EC50: Amphibalanus amphitrite, 48 h. The method, then:
The antifouling activities of synthetic samples were evaluated as EC50 values against the cypris larvae of A. amphitrite by exposure of each compound for 48 h (Table 1, Figure 2). […] We next investigated the biological activity of the fragments.
(§1) Antifouling assay against larvae of the barnacle Amphibalanus amphitrite was conducted according to the previous literature. The adult barnacles, A. amphitrite, obtained from oyster farms in Lake Hamana and a pier of Shimizu bay, Shizuoka, were kept in an aquarium at 20 °C and were fed on Artemia salina nauplii. Broods were released as I–II stage nauplii upon immersion in seawater after drying overnight. The nauplii (1.0~3.0 indiv./mL) thus obtained were cultured in 2.0 L filtered (0.2 μm) natural seawater (diluted by DW: salinity 28) containing penicillin G (20 μg/mL) and streptomycin sulfate (30 μg/mL) at 25 °C and were fed on the diatom Chaetoceros gracillis at concentrations of 40 × 10^4 cells/mL. Larvae reached the cyprid stage in 5 days. The cyprids were collected, then stored at 4 °C until use (0-day-old).
(§2) The test compounds were dissolved in ethanol and aliquots of the solution (20 μL) were transferred to wells of a 24-well polystyrene culture plates and then air-dried for 3 h at room temperature and CuSO4 was used as positive compound. Four wells were used for each concentration (0.03, 0.1, 0.3, 1.0, 3.0, 10.0 μg/mL). To each well were added filtered ([…]) natural seawater (2.0 mL, salinity 28) and six 2-day-old cyprids. The plates were kept in the dark at 25 °C for 48 h. […] Three or four trials were carried out for each concentration. Antifouling activity (EC50) indicates the concentration reducing the larval settlement to 50% of the control (non-treatment) by Probit analysis. Toxicity of compounds were expressed as LC50 value, which indicates the concentration showing 50% mortality estimated by Probit analysis.

Series [2] in a line: Antifouling assay: toxicity (mortality) to cypris larvae, 48 h exposure. The following applies: Amphibalanus amphitrite (barnacle, cypris larvae), in vivo, 50% mortality of cyprids, highest concentration 10.0 μg/mL, read-out: LC50 (50% lethal concentration). The protocol: as §1, §2
Series [3] deals with cypris larvae of the barnacle Amphibalanus amphitrite. The following applies: previous compounds and positive control, cited from earlier work; for EC50: read-out: EC50 (μM), antifouling activity.
Series [4] has as its system larval settlement and metamorphosis of the barnacle Amphibalanus amphitrite. The arrangement: method as in PMID 20658384. The following applies: cited from earlier work.
Series [5] deals with barnacle Amphibalanus amphitrite. More on the design: method as in PMID 20658384. The following applies: cited from earlier work.
The test system of series [6] is human cancer cell lines such as NCI-H460, KM20L2 and SF-295. The following applies: cited from earlier work.
In series [7] the test system is cypris larvae of the barnacle Amphibalanus amphitrite. The following applies: previous compounds and positive control; cited from earlier work.
The mark [8] stands for this setting: larval settlement reduced to 50% of control, Probit analysis, read-out: EC50 (50% effective concentration), antifouling activity.
Where [9] appears, read: larval settlement, read-out: EC50 (μM), antifouling activity.

For the compound `CC(C)[C@@H](NC(=O)[C@@H]1CCCN1C(=O)[C@@H](NC(=O)OC(C)(C)C)[C@H](C)Cc1ccccc1)[C@@H](C)C(=O)OCc1ccccc1` [Boc-3], the EC50 in series [1] (setting [8]) was less than 1 µg/mL; in series [1] (setting [9]) it was 1.3 µM. Also, the LC50 in series [2] was more than 10 µg/mL.
Regarding `CC(C)C1NC(=O)[C@@H]2CCCN2C(=O)C(C(C)Cc2ccccc2)NC(=O)[C@@H]2CCCN2C(=O)[C@@H](C(C)C)N(C)C(=O)[C@@H](C(C)C)OC(=O)[C@@H]2CCCN2C(=O)[C@H](C)OC(=O)C1C` (some centres unmarked) [Compound 1, Dolastatin 16] (cyclo([Lac]P[dHiv][dNMeV]P[X1]P[X2])), in series [3], the “EC50 (50% effective concentration), antifouling activity” value is less than 0.03 µg/mL and the EC50 was less than 0.03 µM. Besides, in series [4], the “EC50 (50% effective concentration)” value is 0.003 µg/mL (≈ 0.00341 µM). Besides, the “LC50 (50% lethal concentration)” value in series [5] is 20 µg/mL (≈ 22.8 µM). In series [6] (1 isolated from the natural sample), the “Growth inhibition of human cancer cell lines” value is “strong growth inhibitions”. The “Anticancer activity of synthetic sample versus isolated compound” value in series [6] (synthetic 1) is listed as “much less potent than the isolated compound”. Further, the “LC50 (50% lethal concentration)” value in series [7] was more than 10 µg/mL.
Regarding `CC(C)[C@H](OC(=O)[C@@H]1CCCN1C(=O)[C@H](C)OCc1ccccc1)C(=O)N(C)[C@@H](C(=O)N1CCC[C@H]1C(=O)O)C(C)C` [Compound 2] (X5-P[Hiv][dNMeV]P-OH), in series [3], the “EC50 (50% effective concentration), antifouling activity” value is more than 10 µg/mL and the EC50 was more than 17 µM. Also, the “LC50 (50% lethal concentration)” value in series [7] is more than 10 µg/mL.
Consider `CC(C)[C@@H](NC(=O)[C@@H]1CCCN1C(=O)[C@@H](N)[C@H](C)Cc1ccccc1)[C@@H](C)C(=O)OCc1ccccc1` [Compound 3], for which, in series [3], the “EC50 (50% effective concentration), antifouling activity” value is 1.17 µg/mL (≈ 2.3 µM) and the EC50 was 1.92 µM. The “LC50 (50% lethal concentration)” value in series [7] is more than 10 µg/mL.
`CC(C)[C@@H](NC(=O)[C@@H]1CCCN1C(=O)[C@@H](NC(=O)OC(C)(C)C)[C@H](C)Cc1ccc(O)cc1)[C@@H](C)C(=O)OCc1ccccc1` [Compound 21, Boc-Dpv(OH)-Pro-Dml-OBn]: the EC50 in series [1] (setting [8]) was less than 1 µg/mL; in series [1] (setting [9]) it was 0.96 µM. Besides, in series [2], the LC50 is more than 10 µg/mL.
For `CC(C)[C@@H](NC(=O)[C@@H]1CCCN1C(=O)[C@@H](NC(=O)OC(C)(C)C)[C@H](C)Cc1ccc(OCc2ccccc2)cc1)[C@@H](C)C(=O)OCc1ccccc1` [Compound 22, Boc-Dpv(OBn)-Pro-Dml-OBn] the same measures were 4.62 µg/mL, 6.47 µM and more than 10 µg/mL.
In the case of `CC(=O)Oc1ccc(C[C@@H](C)[C@@H]2NC(=O)[C@@H]3CCCN3C(=O)[C@@H](C(C)C)N(C)C(=O)[C@H](C(C)C)OC(=O)[C@@H]3CCCN3C(=O)[C@H](C)OC(=O)[C@H](C)[C@@H](C(C)C)NC(=O)[C@@H]3CCCN3C2=O)cc1` [Compound 24, Dolastatin 16 Acetate] (cyclo([Hiv][dNMeV]P[X3]P[X4][Lac]P)), the EC50 turned out to be 1.74 µg/mL in series [1] (read-out: EC50 (50% effective concentration), antifouling activity) and 1.86 µM in series [1] (read-out: EC50 (μM), antifouling activity). The “Antifouling activity (in words)” value in series [1] (settlement of cypris larvae) is “much less potent than dolastatin 16”. Further, the LC50 at 48 h in series [2] is more than 10 µg/mL.
`CC(C)[C@H](OC(=O)[C@@H]1CCCN1C(=O)[C@H](C)OCc1ccccc1)C(=O)N(C)[C@@H](C(=O)N1CCC[C@H]1C(=O)OCc1ccccc1)C(C)C` [Compound 25, BnO-Lac-Pro-O-Hiv-D-MeVal-Pro-OBn] (X5-P[Hiv][dNMeV]P-OBn): the EC50 in series [1] (setting [8]) was less than 1 µg/mL; in series [1] (setting [9]) it was 1.32 µM. Moreover, the LC50 in series [2] was more than 10 µg/mL.
For `CC(C)[C@H](OC(=O)[C@@H]1CCCN1C(=O)OC(C)(C)C)C(=O)N(C)[C@@H](C(=O)N1CCC[C@H]1COCc1ccccc1)C(C)C` [Compound 29, Boc-Pro-O-Hiv-D-MeVal-Pro-CH2OBn] the same measures were 3.27 µg/mL, 6.52 µM and more than 10 µg/mL.
`O=S(=O)([O-])[O-].[Cu+2]` [CuSO4, reference compound]: in series [3], the “EC50 (50% effective concentration), antifouling activity” value is 0.10 µg/mL and the EC50 is 0.63 µM. Further, the “LC50 (50% lethal concentration)” value in series [7] was more than 10 µg/mL.

Source of the values: article PMC8876244, “Effective Synthesis and Antifouling Activity of Dolastatin 16 Derivatives” (Marine Drugs, 2022).
